These results are taken from ChEMBL document CHEMBL4602695, “Discovery and SARs of 5-Chloro-N4-phenyl-N2-(pyridin-2-yl)pyrimidine-2,4-diamine Derivatives as Oral Available and Dual CDK 6 and 9 Inhibitors with Potent Antitumor Activity” (J Med Chem, 2020).

In brackets after ≈: the same amount, converted by molar mass. A value given as a limit tells only on which side of the number the result lay.

The subject of data set [1] is MDA-MB-231. Put plainly: Cell cycle arrest in human MDA-MB-231 cells assessed as accumulation at G0/G1 phase at 8 uM measured after 48 hrs by propidium iodide staining based flow cytometry (reference value: 57.65%). The class given is functional. In general terms: Flow cytometry measures light scatter and fluorescence of single cells or particles in a stream.
Data set [2] deals with MDA-MB-231. The data set can be described thus: Cell cycle arrest in human MDA-MB-231 cells assessed as accumulation at S phase at 8 uM measured after 48 hrs by propidium iodide staining based flow cytometry (reference value: 26.45%). Type of data set: functional.
Data set [3] deals with MDA-MB-231. Put plainly: Cell cycle arrest in human MDA-MB-231 cells assessed as accumulation at S phase at 12 uM measured after 48 hrs by propidium iodide staining based flow cytometry (reference value: 26.45%). Type of data set: functional.
Data set [4] concerns MDA-MB-231. The data set can be described thus: Induction of apoptosis in human MDA-MB-231 cells assessed as viable cells at 8 uM measured after 48 hrs by Annexin V-FITC/propidium iodide staining based flow cytometry (95.8%). Type of data set: functional. Conditions: MDA-MB-231, 48 h, read-out: Activity.
Data set [5] relates to MDA-MB-231. The data set can be described thus: Induction of apoptosis in human MDA-MB-231 cells assessed as late apoptotic cells at 8 uM measured after 48 hrs by Annexin V-FITC/propidium iodide staining based flow cytometry (2.78%). The class given is functional.
The nature of data set [6]: Thermodynamic equilibrium solubility in water by HPLC-based shake flask method. The class given is physicochemical. Conditions: read-out: Therm_solubility.
A short description of data set [7]: Octanol-water partition coefficient, log P of the compound by HPLC-based shake flask method. The class given is physicochemical.
Data set [8] is described as follows: Clearance in human hepatocytes assessed per million cells by LC-MS/MS analysis. Type of data set: ADME, cell-based, Hepatocyte. Conditions: read-out: CLH.
A short description of data set [9]: Half life in mouse hepatocytes by LC-MS/MS analysis. Type of data set: ADME, cell-based, Hepatocyte.
A short description of data set [10]: Half life in Sprague-Dawley rat at 2 mg/kg, iv by LC-MS/MS analysis. Type of data set: ADME, organism-based. Conditions: in vivo.
Data set [11] is described as follows: Cmax in Sprague-Dawley rat at 2 mg/kg, iv by LC-MS/MS analysis. Conditions: in vivo. Also on record: dose 2 mg/kg, route intravenous. Type of data set: ADME, organism-based.
Data set [12] is described as follows: AUC (0 to infinity) in Sprague-Dawley rat at 2 mg/kg, iv by LC-MS/MS analysis. Also on record: dose 2 mg/kg, route intravenous, time infinity. Type of data set: ADME, organism-based. Conditions: in vivo.
A short description of data set [13]: Clearance in Sprague-Dawley rat at 2 mg/kg, iv by LC-MS/MS analysis. The class given is ADME, organism-based. Conditions: in vivo.
The target in data set [14] is Cyclin-dependent kinase 5/CDK5 activator 1 (Homo sapiens, UniProt Q00535). Conditions: Sf9, human, read-out: INH.
Cyclin-dependent kinase 5/CDK5 activator 1, sequence (Q00535 whole entry): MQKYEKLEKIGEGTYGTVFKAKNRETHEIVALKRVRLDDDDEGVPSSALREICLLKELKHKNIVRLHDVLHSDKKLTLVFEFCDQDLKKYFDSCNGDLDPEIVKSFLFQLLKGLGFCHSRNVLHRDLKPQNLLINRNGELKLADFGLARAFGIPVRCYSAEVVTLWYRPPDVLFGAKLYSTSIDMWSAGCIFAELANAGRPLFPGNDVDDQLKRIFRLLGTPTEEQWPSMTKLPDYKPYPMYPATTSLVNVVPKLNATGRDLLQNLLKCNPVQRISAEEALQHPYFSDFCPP
Cyclin-dependent kinase 5/CDK5 activator 1, sequence (Q15078 whole entry, further chain): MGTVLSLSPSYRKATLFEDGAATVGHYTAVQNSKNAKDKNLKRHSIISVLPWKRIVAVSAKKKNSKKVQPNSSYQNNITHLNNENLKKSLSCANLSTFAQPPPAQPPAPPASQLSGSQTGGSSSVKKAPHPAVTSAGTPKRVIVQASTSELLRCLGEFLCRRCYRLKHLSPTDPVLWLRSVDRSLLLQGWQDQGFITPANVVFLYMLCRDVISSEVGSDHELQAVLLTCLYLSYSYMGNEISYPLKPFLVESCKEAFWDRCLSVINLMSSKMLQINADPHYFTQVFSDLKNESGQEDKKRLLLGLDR

As usually defined, the logP is a log measure of how a compound divides between an organic and an aqueous phase. Read a high logP as a more lipophilic compound. The term half-life denotes how long it takes for the measured level to halve. Read a low half-life as fast loss. One may read the Cmax as the peak of the concentration-time curve. The term AUC(0-inf) denotes the area under the concentration-time curve extrapolated to infinity. A higher AUC(0-inf) goes with more exposure. Broadly, the clearance is the volume of plasma or blood freed of the substance per unit of time. Read a low clearance as inefficient removal. Regarding `CC(=O)Nc1cccc(Nc2nc(Nc3ccc(N4CCN(C)CC4)cn3)ncc2Cl)c1`, the Activity in the data set on MDA-MB-231 [1] is listed as 77.51%; with MDA-MB-231 [2] it was 14.36%; in the data set on MDA-MB-231 [3] it was 15.23%; with MDA-MB-231 [5] it was 6.72%. The viability at 8 µM in the data set with MDA-MB-231 [4] stood at 87.5%. Further, the solubility thermodynamic in data set [6] amounted to 0.34 mg/mL (≈ 751 µM). In data set [7], this molecule came in with a logP of 1.23. Also, the hepatocyte CLint in data set [8] was 7.5 µL/min/1e6 cells. The figures for the half-life in [9] and in [10] were 0.653 h and 1.76 h, respectively. Besides, in [11], the Cmax was 0.995 µg/mL. In addition, the AUC(0-inf) in data set [12] turned out to be 0.641 µg·h/mL. This molecule showed a clearance in data set [13] of 3.13 L/h/kg. Besides, in [14], the inhibition at 1 µM is less than 6.6%.
